{
  "source": "patent US20140243348A1",
  "about": "“COMPOSITIONS AND METHODS FOR TREATING HERPES VIRUSES” (President and Fellows of Harvard College, priority 2011, published 2014)",
  "key": {"HSV-1 KOS virus": {"test_system": "HSV-1 KOS virus", "experiment": "Screen of 118-D-24 derivatives on HSV-1 KOS replication in Hep2 cells", "assay_type": "cell-based", "conditions": "250 μM, MOI=0.01, 48 hours, FIG. 12", "method": "To evaluate the effects of 118-D-24 derivatives on HSV replication, a panel of derivatives (Table 1) (Zhao, X. Z., 2008, J. Med. Chem., vol. 51, pages 251-259) were screened for their ability to inhibit HSV-1 KOS virus replication in Hep2 cells. Hep2 cells were plated in a 6-well plate and incubated overnight to reach confluency. The cells were then inoculated with HSV-1 KOS virus at MOI=0.01 for 1 hour. Following inoculation, the virus inoculum was replaced with DMEV medium containing 118-D-24 or a derivative of 118-D-24. After 48 hours, samples were harvested by adding an equal volume of 10% non-fat milk and immediately frozen at −80° C. Samples were freeze-thawed three times to rupture the cell membranes and allow the release of virus. Virus titers were determined by titration on Vero cells. The 100% yield represents the viral titer in samples without drug treatment. […] Hep2 cells or (FIG. 14A) or HFF cells (FIG. 14B) were infected with HSV-1 virus (KOS strain) at MOI of 0.01. Samples were then processed and percent yield remaining values were calculated. EC50 and EC90 values were calculated using nonlinear regression curve fit with a variable slope. GaraphPad Prism 5 software was used for all analyses. (FIG. 14C) Cytotoxicity of XZ45 on the viability of Hep2 cells during a 48-hour incubation period was evaluated using the Promega cell titer glo assay, as described by the manufacturer. The reported values are percent […] remaining relative to the […] from cells grown in media containing DMSO alone. CC50 value was determined as described above. FIGS. 14A and 14B show the effects of XZ45 on HSV-1 replication in Hep2 cells (14A) and normal human foreskin fibroblasts (14B) and the cytotoxicity of XZ45 in Hep2 cells is shown in FIG. 14C."}, "ICP8 [1]": {"biological_target": "T1, ICP8 (Human herpesvirus 1, UniProt P17470)", "T1 sequence (P17470 whole entry)": "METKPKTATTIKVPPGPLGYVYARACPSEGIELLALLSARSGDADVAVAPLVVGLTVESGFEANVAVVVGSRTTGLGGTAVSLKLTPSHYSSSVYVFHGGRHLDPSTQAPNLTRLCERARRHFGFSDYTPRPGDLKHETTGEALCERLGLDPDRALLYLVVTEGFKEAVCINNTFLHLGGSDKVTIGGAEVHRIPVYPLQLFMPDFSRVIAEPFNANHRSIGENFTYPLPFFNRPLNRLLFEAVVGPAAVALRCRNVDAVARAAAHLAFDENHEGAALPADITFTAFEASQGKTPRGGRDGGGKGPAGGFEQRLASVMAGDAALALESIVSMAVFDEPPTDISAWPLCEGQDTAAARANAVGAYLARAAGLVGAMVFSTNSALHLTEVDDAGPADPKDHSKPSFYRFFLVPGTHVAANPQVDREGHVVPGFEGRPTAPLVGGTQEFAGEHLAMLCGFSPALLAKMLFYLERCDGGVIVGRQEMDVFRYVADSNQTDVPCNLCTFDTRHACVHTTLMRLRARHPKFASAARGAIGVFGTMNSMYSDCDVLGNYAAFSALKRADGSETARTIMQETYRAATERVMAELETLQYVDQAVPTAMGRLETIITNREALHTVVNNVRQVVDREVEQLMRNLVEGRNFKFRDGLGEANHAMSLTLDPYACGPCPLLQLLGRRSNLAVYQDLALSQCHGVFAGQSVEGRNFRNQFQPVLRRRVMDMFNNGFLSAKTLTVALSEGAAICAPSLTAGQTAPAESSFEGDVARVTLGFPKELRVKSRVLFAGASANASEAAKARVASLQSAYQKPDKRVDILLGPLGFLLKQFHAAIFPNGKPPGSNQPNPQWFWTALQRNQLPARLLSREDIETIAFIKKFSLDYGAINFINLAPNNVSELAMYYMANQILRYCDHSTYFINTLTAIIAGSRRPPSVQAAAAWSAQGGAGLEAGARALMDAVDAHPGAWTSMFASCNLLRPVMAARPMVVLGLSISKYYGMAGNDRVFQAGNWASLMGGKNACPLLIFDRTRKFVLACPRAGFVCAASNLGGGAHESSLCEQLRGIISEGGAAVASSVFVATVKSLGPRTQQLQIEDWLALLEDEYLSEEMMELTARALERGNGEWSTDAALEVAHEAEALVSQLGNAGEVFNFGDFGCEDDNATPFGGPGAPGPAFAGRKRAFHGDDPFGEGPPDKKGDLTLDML", "experiment": "D-loop assay of ICP8 mediated recombination", "assay_type": "biochemical", "conditions": "0, 10, 20, or 40 μM XZ45; FIG. 20", "method": "To further test the effect of XZ45 on ICP8 mediated recombination a D-loop assay was used. A double stranded DNA probe was mixed with a single stranded DNA oligonucleotide in the presence or absence of ICP8 with 0, 10, 20, or 40 μM XZ45. Following incubation, the reaction products were analyzed by electrophoresis through a native gel."}, "HSV recombination": {"test_system": "HSV recombination", "experiment": "HSV recombination in Hep2 cells coinfected with 8LacZ and hr99", "assay_type": "cell-based", "conditions": "20 hours after infection, compared to PAA, FIG. 19", "method": "To test the effect of XZ45 on HSV recombination during viral replication, 8LacZ (deletion of ul29) and hr99 (deletion of ul5) virus were used to coinfect Hep2 cells in the presence of XZ45 or PAA. At 20 hours after infection, samples were harvested and progeny virus were tittered on Vero cells and V529 cells to determine the viral titer of recombinated virus and total virus. The recombination rate reflects the ratio between the titer of recombinated virus and total virus."}, "[2]": {"test_system": "human cytomegalovirus (HCMV)", "experiment": "XZ45 viral yield assay, HCMV", "assay_type": "cell-based", "conditions": "FIG. 16", "method": "(§1) Hep2 cells were infected with HSV-1 strain KOS, strain F, or HSV-2 strain G at MOI of 0.01. The infected cells were grown in media containing increasing concentrations of XZ45 or DMSO for 48 hours. Samples were harvested and viral yield was determined by plaque assay on Vero cells. The reported values are percent yield remaining relative to cells grown in media containing DMSO alone (FIG. 15A). Hep2 cells (FIG. 15B) or HFF cells (FIG. 15C) were infected with HSV-1 virus (KOS strain) at MOI of 10 or 0.01 or with human cytomegalovirus (HCMV) (FIG. 16). Samples were then processed and percent yield remaining values were calculated as describe above."}, "HSV-1 KOS viral DNA": {"test_system": "HSV-1 KOS viral DNA", "experiment": "XZ45 viral DNA synthesis (real-time PCR) in Hep2 cells", "assay_type": "cell-based", "conditions": "10 μM XZ45, MOI=10, FIG. 17A", "method": "(§2) Hep2 cells were infected with HSV-1 KOS at an MOI=10 in the presence or absence of 10 μM XZ45. Total DNA was harvested at the times indicated, and viral DNA levels in each sample were determined by real-time PCR and were normalized to the levels of cellular DNA. […] Hep2 cells were infected with HSV-1 KOS in the presence or absence of 10 μM XZ45. Lysates were prepared for immunoblotting at the indicated times. Polypeptides were resolved by SDS-PAGE, transferred to a PVDF membrane, and probed for representative immediate-early (ICP27), early (ICP8), and late (gC) gene products."}, "ICP8 [3]": {"biological_target": "T1, ICP8", "experiment": "ssDNA binding by ICP8 (EMSA, ssDNA beads pull down, ssDNA-cellulose)", "conditions": "three assays; FIG. 18A-18C", "method": "The effect of XZ45 on ssDNA binding by ICP8 was measured by EMSA assay with purified ICP8 protein using ^32P-labled polynucleotide ssDNA probe (FIG. 18A); ssDNA beads pull down assay (FIG. 18B), and ICP8 binding to ssDNA-cellulose (FIG. 18C)."}, "[4]": {"test_system": "HSV-1 strain KOS, strain F", "experiment": "XZ45 viral yield assay, HSV-1", "assay_type": "cell-based", "conditions": "Hep2 or HFF cells, 48 hours; FIG. 15", "method": "as §1"}, "[5]": {"test_system": "HSV-1 KOS late (gC) gene products", "experiment": "XZ45 viral gene expression by immunoblotting in Hep2 cells", "assay_type": "cell-based", "conditions": "10 μM XZ45, FIG. 17B", "method": "as §2"}, "HSV-2 strain G": {"test_system": "HSV-2 strain G", "experiment": "XZ45 viral yield assay, HSV-2", "assay_type": "cell-based", "conditions": "Hep2 cells, MOI 0.01, 48 hours; FIG. 15A", "method": "as §1"}, "wild type HSV-1": {"test_system": "wild type HSV-1", "experiment": "HSV yield reduction assay (plaque assay) with HIV integrase inhibitors", "assay_type": "cell-based", "conditions": "100 μM; FIG. 6", "quoted_text": "At 48 hours post infection, viral yield samples were harvested and the yield was determined by plaque assay. Values are presented as the percent yield remaining, relative to the DMSO vehicle control treatment.\nCells were infected with wild type HSV-1 at a multiplicity of infection of 0.01 plaque-forming units per cell and treated with the indicated concentration of the HIV integrase inhibitor specified. At 48 hours post infection, viral yield samples were harvested and the yield was determined by plaque assay. Values are presented as the percent yield remaining, relative to the DMSO vehicle control treatment."}, "HCMV UL89": {"biological_target": "HCMV UL89 (Human cytomegalovirus, UniProt P16732)", "sequence (P16732 whole entry)": "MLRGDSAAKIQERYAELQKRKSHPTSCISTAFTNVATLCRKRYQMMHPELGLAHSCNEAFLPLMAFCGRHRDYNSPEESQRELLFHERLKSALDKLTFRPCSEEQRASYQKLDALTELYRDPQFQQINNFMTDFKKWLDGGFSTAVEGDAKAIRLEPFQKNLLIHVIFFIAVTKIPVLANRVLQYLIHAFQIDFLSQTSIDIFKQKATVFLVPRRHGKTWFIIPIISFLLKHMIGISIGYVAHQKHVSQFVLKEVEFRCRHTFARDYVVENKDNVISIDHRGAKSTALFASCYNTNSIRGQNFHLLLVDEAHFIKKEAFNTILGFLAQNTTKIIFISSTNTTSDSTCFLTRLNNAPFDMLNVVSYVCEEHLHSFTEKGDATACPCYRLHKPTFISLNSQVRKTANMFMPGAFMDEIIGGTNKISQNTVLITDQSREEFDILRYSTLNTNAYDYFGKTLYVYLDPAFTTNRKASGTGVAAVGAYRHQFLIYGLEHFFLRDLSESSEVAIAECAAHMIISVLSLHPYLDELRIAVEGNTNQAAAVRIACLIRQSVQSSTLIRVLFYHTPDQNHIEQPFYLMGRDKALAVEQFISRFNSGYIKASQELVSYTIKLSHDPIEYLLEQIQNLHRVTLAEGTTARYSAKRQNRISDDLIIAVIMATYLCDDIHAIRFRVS", "conditions": "cited from earlier work"}},
  "data": [
    {"molecule": "[N-]=[N+]=NCc1cccc(CN2Cc3ccc(O)c(O)c3C2=O)c1", "note": "[XZ99]", "values": [
      {"measurement": "viral yield (in words)", "setting": "HSV-1 KOS virus", "result": "significant reductions in viral yield"}
    ]},
    {"molecule": "O=C(NNC(=O)c1cccc(O)c1O)c1ccccc1O", "note": "[XZ45]", "values": [
      {"measurement": "ICP8 mediated formation of D-loops", "setting": "ICP8 [1]", "result": "inhibited the ICP8 mediated formation of D-loops"},
      {"measurement": "HSV recombination (recombination rate)", "setting": "HSV recombination", "result": "significantly inhibited HSV recombination"},
      {"measurement": "replication of HCMV", "setting": "[2]", "result": "inhibits the replication"},
      {"measurement": "viral DNA synthesis", "setting": "HSV-1 KOS viral DNA", "result": "Inhibits Viral DNA Synthesis"},
      {"measurement": "ssDNA binding by ICP8", "setting": "ICP8 [3]", "result": "does not affect ssDNA binding"},
      {"measurement": "replication of HSV-1", "setting": "[4]", "result": "inhibits the replication"},
      {"measurement": "expression of the late gene (gC) products", "setting": "[5]", "result": "significantly inhibited"},
      {"measurement": "viral yield (in words)", "setting": "HSV-1 KOS virus", "result": "significant reductions in viral yield"},
      {"measurement": "replication of HSV-2", "setting": "HSV-2 strain G", "result": "inhibits the replication"}
    ]},
    {"molecule": "O=C(NN1Cc2ccc(O)c(O)c2C1=O)c1cccc(O)c1O", "note": "[XZ49]", "values": [
      {"measurement": "viral yield (in words)", "setting": "HSV-1 KOS virus", "result": "significant reductions in viral yield"}
    ]},
    {"molecule": "O=C(NNC(=O)c1cccc(O)c1O)c1cccc(O)c1O", "note": "[XZ15]", "values": [
      {"measurement": "viral yield (in words)", "setting": "HSV-1 KOS virus", "result": "significant reductions in viral yield"}
    ]},
    {"molecule": "[N-]=[N+]=NCc1cccc(CN2C(=O)c3ccc(O)c(O)c3C2=O)c1", "note": "[XZ100]", "values": [
      {"measurement": "viral yield (in words)", "setting": "HSV-1 KOS virus", "result": "significant reductions in viral yield"}
    ]},
    {"molecule": "O=C1c2c(ccc(O)c2O)CN1N1Cc2ccc(O)c(O)c2C1=O", "note": "[XZ48]", "values": [
      {"measurement": "viral yield (in words)", "setting": "HSV-1 KOS virus", "result": "significant reductions in viral yield"}
    ]},
    {"molecule": "O=C1c2c(ccc(O)c2O)CN1N1C(=O)c2ccc(O)c(O)c2C1=O", "note": "[XZ50]", "values": [
      {"measurement": "viral yield (in words)", "setting": "HSV-1 KOS virus", "result": "significant reductions in viral yield"}
    ]},
    {"molecule": "Cc1nnc(C(=O)NC(C)(C)c2nc(C(=O)NCc3ccc(F)cc3)c(O)c(=O)n2C)o1", "note": "[Raltegravir]", "values": [
      {"measurement": "reduction of HSV viral yield", "setting": "wild type HSV-1", "result": "greater than 96%"},
      {"measurement": "HCMV UL89 activity", "setting": "HCMV UL89", "result": "inhibit HCMV UL89 activity"}
    ]}
  ]
}
